Activity calls are given as the source filed them.
Experiments:
[1] = molecular target: T1, ATP-dependent translocase ABCB1 (Homo sapiens, UniProt P08183); assay: inhibition of BCRP-mediated JC-1 efflux – Ig-MXP3 cells, flow cytometry, set 2, dose response (AID 504566); type: functional; conditions: read-out: EC50_MICROM_;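 also: flow cytometry median green fluorescence of retained JC-1 dye; potency of efflux pump inhibition measured as rising substrate retention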
[2] = molecular target: T1, ATP-dependent translocase ABCB1; assay: P-gp JC-1 efflux blockade concentration-response – Jurkat-DNR cells, flow cytometry, set 2, dose response (AID 504569); type: functional; conditions: read-out: EC50_MICROM_;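 also: potency of pump inhibitors that raise cellular JC-1 green fluorescence up to the nicardipine level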
[3] = molecular target: T2, Voltage-gated N-type calcium channel alpha-1B subunit/Amyloid beta A4 precursor protein-binding family A member 1 (Homo sapiens, UniProt Q00975+Q02410); type: protein assay
[4] = molecular target: T2, Voltage-gated N-type calcium channel alpha-1B subunit/Amyloid beta A4 precursor protein-binding family A member 1; type: protein assay; remark: listed apart in the source
[5] = molecular target: T3, Carboxy-terminal domain RNA polymerase II polypeptide A small phosphatase 1 (Homo sapiens, UniProt Q9GZU7); assay: CTDSP1 inhibitors, concentration-response, biochemical, absorbance readout, ultra-high-throughput screen actives (AID 540297); type: functional
T3 sequence (Q9GZU7 whole entry): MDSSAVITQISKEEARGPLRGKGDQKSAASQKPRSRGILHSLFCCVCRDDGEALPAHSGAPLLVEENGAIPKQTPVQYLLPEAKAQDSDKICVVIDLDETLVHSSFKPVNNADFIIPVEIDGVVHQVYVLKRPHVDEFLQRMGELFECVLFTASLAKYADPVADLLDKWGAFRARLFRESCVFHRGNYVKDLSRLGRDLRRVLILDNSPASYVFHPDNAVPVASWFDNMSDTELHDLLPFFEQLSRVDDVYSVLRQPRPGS

[6] = molecular target: T4, Low molecular weight phosphotyrosine protein phosphatase (Homo sapiens, UniProt P24666); type: functional; conditions: read-out: IC50_Mean;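 also: Dose-response confirmation assay measuring inhibition of LMPTP enzyme activity by fluorescence intensity read-out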
T4 sequence (P24666 whole entry): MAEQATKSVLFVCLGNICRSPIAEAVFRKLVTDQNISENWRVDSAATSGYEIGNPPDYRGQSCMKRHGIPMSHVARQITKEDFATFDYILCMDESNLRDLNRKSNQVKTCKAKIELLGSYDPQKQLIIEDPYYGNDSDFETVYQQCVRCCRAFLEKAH

[7] = molecular target: T5, Tyrosine-protein phosphatase non-receptor type 22 (Homo sapiens, UniProt Q9Y2R2); assay: PTPN22 enzyme inhibitors – biochemical, fluorescence, LYP catalytic domain, selectivity assay for LMPTP inhibitor project, dose response (AID 652006); type: functional; conditions: read-out: IC50_Mean
T5 sequence (Q9Y2R2 whole entry): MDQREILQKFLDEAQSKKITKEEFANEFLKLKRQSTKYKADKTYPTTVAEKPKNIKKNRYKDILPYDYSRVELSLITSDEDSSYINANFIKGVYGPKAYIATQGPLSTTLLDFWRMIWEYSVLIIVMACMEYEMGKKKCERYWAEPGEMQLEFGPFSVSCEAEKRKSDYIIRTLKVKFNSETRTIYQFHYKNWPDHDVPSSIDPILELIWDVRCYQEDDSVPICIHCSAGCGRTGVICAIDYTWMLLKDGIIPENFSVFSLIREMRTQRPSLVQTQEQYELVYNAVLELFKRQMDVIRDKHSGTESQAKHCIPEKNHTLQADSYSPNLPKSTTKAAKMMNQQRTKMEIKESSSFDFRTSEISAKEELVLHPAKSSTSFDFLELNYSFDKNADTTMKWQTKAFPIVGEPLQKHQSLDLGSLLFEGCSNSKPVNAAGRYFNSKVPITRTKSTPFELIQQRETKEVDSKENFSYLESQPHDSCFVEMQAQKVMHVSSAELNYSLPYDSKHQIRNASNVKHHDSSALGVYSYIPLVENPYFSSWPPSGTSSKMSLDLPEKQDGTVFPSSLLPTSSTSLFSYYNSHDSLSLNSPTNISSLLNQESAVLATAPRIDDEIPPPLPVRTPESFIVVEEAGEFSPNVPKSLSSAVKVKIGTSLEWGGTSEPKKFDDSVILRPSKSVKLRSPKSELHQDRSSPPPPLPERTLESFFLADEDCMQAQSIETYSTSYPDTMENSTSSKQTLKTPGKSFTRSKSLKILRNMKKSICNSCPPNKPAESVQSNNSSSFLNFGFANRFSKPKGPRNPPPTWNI

T2 sequence (Q00975 whole entry): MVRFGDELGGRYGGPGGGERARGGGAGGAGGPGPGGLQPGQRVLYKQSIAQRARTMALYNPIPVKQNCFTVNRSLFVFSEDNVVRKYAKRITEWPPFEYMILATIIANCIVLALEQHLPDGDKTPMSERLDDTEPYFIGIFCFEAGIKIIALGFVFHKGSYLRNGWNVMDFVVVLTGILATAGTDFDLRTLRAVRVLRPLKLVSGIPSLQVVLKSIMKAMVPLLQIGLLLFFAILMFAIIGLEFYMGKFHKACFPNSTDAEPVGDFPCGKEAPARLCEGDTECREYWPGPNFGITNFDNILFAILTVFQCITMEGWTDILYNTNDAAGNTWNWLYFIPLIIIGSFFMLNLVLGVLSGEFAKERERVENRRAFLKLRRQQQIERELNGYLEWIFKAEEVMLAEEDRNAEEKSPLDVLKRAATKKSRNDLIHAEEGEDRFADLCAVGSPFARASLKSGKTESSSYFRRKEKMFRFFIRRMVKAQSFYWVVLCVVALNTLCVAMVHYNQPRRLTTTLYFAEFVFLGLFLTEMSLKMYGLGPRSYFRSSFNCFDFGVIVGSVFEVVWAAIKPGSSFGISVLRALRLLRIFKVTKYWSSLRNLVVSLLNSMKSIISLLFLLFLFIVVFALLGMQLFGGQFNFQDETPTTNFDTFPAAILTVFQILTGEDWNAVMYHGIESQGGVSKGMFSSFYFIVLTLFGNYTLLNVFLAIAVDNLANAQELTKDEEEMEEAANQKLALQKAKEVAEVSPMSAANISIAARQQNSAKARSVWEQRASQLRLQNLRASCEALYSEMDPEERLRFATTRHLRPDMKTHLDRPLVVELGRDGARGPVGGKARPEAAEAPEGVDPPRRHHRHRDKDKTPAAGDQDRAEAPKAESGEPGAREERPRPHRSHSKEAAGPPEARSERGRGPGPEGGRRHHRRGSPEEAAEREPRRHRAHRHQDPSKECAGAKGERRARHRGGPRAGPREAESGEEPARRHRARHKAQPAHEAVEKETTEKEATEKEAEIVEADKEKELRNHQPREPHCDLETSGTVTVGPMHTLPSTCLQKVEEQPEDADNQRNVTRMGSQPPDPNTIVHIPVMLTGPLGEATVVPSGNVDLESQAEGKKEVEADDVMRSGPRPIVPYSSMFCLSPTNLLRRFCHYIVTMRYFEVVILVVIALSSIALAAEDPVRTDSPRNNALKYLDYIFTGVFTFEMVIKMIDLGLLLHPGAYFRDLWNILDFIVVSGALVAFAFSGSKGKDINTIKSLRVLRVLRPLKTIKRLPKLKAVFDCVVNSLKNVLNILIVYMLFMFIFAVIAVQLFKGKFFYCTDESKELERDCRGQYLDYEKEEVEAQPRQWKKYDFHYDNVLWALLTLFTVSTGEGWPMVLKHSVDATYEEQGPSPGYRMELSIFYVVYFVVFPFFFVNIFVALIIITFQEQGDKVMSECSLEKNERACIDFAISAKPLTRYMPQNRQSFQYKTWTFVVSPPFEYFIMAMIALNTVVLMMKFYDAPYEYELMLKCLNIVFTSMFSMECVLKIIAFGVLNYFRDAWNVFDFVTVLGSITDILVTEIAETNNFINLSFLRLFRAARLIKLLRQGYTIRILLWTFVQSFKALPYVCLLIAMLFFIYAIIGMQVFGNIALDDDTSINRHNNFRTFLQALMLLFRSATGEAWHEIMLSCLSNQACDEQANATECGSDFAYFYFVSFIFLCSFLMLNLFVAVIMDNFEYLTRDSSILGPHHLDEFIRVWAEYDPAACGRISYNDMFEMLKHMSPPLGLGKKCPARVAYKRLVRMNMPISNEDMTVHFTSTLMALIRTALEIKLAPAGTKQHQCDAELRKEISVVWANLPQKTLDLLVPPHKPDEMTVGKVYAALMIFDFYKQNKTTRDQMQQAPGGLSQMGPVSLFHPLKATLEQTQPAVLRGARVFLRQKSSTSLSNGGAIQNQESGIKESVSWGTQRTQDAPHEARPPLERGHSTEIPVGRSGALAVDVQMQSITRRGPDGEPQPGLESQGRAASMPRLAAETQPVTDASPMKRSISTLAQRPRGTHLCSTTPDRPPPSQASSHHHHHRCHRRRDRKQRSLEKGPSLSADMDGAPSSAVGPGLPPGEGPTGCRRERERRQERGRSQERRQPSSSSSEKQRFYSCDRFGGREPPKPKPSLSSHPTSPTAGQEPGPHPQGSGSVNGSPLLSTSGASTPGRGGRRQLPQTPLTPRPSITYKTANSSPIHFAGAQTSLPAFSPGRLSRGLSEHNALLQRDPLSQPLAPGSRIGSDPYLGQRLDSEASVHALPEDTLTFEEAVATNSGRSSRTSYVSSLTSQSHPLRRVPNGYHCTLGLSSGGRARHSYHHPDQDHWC
T2 sequence (Q02410 whole entry): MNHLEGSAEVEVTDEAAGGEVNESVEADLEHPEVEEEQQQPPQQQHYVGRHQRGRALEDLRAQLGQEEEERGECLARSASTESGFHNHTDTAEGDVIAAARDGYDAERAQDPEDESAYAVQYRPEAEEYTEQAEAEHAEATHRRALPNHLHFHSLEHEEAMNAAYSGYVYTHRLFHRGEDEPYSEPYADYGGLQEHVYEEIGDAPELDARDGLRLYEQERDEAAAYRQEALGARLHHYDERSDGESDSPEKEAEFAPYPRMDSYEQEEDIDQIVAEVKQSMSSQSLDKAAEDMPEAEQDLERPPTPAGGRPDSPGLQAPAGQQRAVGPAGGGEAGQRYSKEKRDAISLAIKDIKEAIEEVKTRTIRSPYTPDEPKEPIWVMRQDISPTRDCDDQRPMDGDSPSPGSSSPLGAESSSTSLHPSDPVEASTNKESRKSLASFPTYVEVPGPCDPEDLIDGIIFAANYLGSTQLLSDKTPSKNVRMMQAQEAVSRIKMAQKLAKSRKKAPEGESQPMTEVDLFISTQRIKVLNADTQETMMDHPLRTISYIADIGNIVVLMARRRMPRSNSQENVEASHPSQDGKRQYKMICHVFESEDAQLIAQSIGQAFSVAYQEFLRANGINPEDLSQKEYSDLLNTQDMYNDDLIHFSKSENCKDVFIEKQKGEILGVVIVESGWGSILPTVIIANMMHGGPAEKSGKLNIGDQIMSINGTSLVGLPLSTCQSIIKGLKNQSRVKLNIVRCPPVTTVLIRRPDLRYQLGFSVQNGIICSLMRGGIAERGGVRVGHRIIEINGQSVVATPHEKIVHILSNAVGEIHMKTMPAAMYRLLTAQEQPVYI
T1 sequence (P08183 whole entry): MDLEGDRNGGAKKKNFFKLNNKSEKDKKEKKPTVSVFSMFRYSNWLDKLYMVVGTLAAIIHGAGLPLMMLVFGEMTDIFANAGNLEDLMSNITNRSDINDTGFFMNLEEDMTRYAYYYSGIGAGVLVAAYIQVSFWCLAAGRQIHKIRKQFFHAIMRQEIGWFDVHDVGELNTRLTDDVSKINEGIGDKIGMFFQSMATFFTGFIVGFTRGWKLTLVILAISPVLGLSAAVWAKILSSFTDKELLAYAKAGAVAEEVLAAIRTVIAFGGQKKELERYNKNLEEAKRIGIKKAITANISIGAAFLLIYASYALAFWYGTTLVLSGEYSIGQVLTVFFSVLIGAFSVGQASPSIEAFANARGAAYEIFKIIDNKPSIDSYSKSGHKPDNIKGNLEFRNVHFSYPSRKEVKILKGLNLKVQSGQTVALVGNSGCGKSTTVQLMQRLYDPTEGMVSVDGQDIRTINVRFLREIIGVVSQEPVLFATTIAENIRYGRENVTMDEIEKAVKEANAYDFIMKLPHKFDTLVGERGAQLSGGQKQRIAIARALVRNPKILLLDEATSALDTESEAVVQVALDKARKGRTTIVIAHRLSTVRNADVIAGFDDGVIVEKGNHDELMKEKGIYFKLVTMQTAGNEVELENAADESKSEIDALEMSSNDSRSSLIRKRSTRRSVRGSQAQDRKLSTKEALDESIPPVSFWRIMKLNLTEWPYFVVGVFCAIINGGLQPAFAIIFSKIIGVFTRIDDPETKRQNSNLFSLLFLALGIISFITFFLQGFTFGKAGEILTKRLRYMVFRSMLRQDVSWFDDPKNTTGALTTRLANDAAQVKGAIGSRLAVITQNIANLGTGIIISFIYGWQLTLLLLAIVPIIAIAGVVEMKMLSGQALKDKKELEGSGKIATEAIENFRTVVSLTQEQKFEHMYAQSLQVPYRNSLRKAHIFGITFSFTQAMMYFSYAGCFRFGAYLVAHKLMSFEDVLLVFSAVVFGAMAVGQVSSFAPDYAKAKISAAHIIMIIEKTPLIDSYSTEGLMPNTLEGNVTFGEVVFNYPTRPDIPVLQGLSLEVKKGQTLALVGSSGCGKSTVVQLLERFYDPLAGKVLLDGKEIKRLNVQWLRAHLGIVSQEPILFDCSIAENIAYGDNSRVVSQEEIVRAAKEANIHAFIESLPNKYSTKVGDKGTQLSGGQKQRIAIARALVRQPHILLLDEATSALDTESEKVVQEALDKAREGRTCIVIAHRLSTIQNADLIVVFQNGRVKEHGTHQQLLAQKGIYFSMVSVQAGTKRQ

Row | EC50 [1] | EC50 [2] | IC50 [3] | IC50 [4] | IC50 [5] | IC50 [6] | IC50 [7] | SMILES
1 | 2.97 µM (active) | 4.13 µM (active) | – | – | – | – | – | COc1ccccc1C(=O)N1CCN(c2cc(-c3ccccc3)nc3cc(-c4cccc(Cl)c4)nn23)CC1
2 | – | – | 3.86 µM (active) | > 50 µM (inactive) | 4.18 µM (active) | 20.7 µM (inactive) | 56.1 µM (inactive) | NS(=O)(=O)c1ccc(CNC(=O)Cc2cccs2)cc1

— ChEMBL document CHEMBL1201862, “PubChem BioAssay data set” (2004)
